Laboratory results from patent publication EP4671239A1, “ARYL SUBSTITUENT-CONTAINING DEGRADATION AGENT FOR CDK12/13, PREPARATION METHOD THEREFOR, AND PHARMACEUTICAL COMPOSITION AND USE THEREOF” (Shanghai Institute of Organic Chemistry, Chinese Academy of …, priority 2023, dated 2024).

How the values were obtained:
CDK12 and CDK13 proteins = experiment: Degradation activity on CDK12/13 in 22RV1 cells (Western Blot); type: cell-based; conditions: 22RV1 cells; for degradation of CDK12 and CDK13 protein levels in cells: 500 nM, 6 hours, WB (FIG. 4); for degradation of CDK12 and CDK13 proteins: 100 nM, 6 h (FIG. 5); for dose dependence of degradation of CDK12 and CDK13 proteins: different concentrations, 6 h (FIG. 4B, FIG. 5)
Method: Experimental methods: The cell line, 22RV1 cell line was purchased from the American Type Culture Collection (ATCC). Conventional Western Blot was used for detection as follows: 22RV1 cells were seeded in a certain number in a 12-well plate, and cultured overnight in an incubator in an adherent manner. […] The cells were lysed with a lysis buffer, and samples were collected. Then, an appropriate amount of the samples was taken for SDS-PAGE electrophoresis. After electrophoresis, the proteins were transferred to nitrocellulose membranes using a semi-dry electro-transfer system. The nitrocellulose membrane was placed in a blocking solution (5% skim milk powder diluted in TBS containing 0.1% Tween 20) and blocked at room temperature for 2 h. The membranes were then placed in a primary antibody solution (1: 1000 diluted in TBS containing 0.1% Tween 20), respectively, and incubated at 4°C overnight. The cells were washed three times with TBS containing 0.1% Tween 20, each time for 15 min. The membrane was placed in a secondary antibody solution (horseradish peroxidase-labeled goat anti-rabbit IgG, diluted at 1:1000 in TBS containing 0.1% Tween 20) and reacted at room temperature for 1 h. After washing the membrane three times as above, the membrane was developed with ECL plus reagent and photographed using Amersham Imager 600 system.

[1] = tested on: prostate cancer VCap cells; experiment: Proliferation-inhibiting activity on VCap cells (CellTiter-Glo); type: cell-based; conditions: Homo sapiens; VCap cell line, CellTiter-Glo (FIG. 6)
Method: The cell proliferation-inhibiting activity of the compounds was determined using the CellTiter-Glo Luminescent Cell Viability Assay (Promega, Madison, WI). The cells were seeded in a 96-well plate in their respective culture media and incubated at 37°C in a 5% CO2 incubator. After overnight incubation, serial dilutions of the compounds were prepared and added to the 96-well plate. A volume of CellTiter-Glo reagent equal to the volume of the cell culture medium present in each well was added (e.g., 100 microliters of the reagent was added to 100 microliters of the culture medium for the cells in the 96-well plate). The contents were mixed on an orbital shaker for 2 min to induce cell lysis. The 96-well plate was incubated at room temperature for 10 minutes to stabilize a luminescent signal. Luminescence was recorded: the luminescence signal of each well was acquired using an Infinite M1000 Pro plate reader (Tecan, Zürich, Switzerland), and the data were analyzed using GraphPad Prism software (GraphPad Software Inc, La Jolla, CA).

[2] = Pharmacokinetics and bioavailability test in rats (Example 60); type: in vivo; conditions: SD rats; for F: bioavailability calculated from AUC; for oral pharmacokinetic properties: summary in words of Tables 2-6; for Cmax / Tmax / clearance / half-life: rat
Method: Pharmacokinetics and bioavailability tests in rats. SD rats were given a single oral (10 mg/kg), intravenous (2.5 mg/kg) and intraperitoneal (10 mg/kg) dose, followed by animal blood sample collection at appropriate time points. Heparin was added for anticoagulation, and the samples were centrifuged at 8000 rpm for 6 min. The supernatant was collected and stored at -20°C for HPLC-MS analysis. The blood samples underwent protein precipitation with acetonitrile at 12 000 rpm * 10 min, and the supernatant was used for HPCL-MS analysis. The data underwent parameter fitting with DAS2.0, to obtain compartmental model and non-compartmental model parameters, respectively. The oral bioavailability of the compounds was calculated based on the area under the plasma concentration-time curve (AUC) data. […] Table 2. Pharmacokinetic experimental results of compounds YJZ9069 and YJZ1102

[3] = Sprague-Dawley, plasma, IV 2.5 mg/kg
[4] = Sprague-Dawley, plasma, PO 10 mg/kg

SMILES	degradation of CDK12 and CDK13 protein levels in cells (CDK12 and CDK13 proteins)	IC50 [1] [µM]	F ([2]; PO 10 mg/kg) [%]	oral pharmacokinetic properties [2]	Cmax [2, 3] [ng/mL]	Tmax [2, 3] [h]	clearance [2, 3] [mL/min/kg]	half-life [2, 3] [h]	Cmax [2, 4] [ng/mL]	Tmax [2, 4] [h]	half-life [2, 4] [h]	degradation of CDK12 and CDK13 proteins (CDK12 and CDK13 proteins)	dose dependence of degradation of CDK12 and CDK13 proteins (CDK12 and CDK13 proteins)	Cmax ([2]; in vivo, IV 2.5 mg/kg) [ng/mL]	Tmax ([2]; in vivo, IV 2.5 mg/kg) [h]	clearance ([2]; in vivo, IV 2.5 mg/kg) [mL/min/kg]	half-life ([2]; in vivo, IV 2.5 mg/kg) [h]	Cmax ([2]; in vivo, PO 10 mg/kg) [ng/mL]	Tmax ([2]; in vivo, PO 10 mg/kg) [h]	half-life ([2]; in vivo, PO 10 mg/kg) [h]
O=C1CCC(N2C(=O)c3ccc(N4CCC(N5CCN(c6ccc(N(C(=O)NCc7ccccc7)[C@H]7CC[C@H](Nc8ncc9ccccc9n8)CC7)cc6)CC5)CC4)cc3C2=O)C(=O)N1 (some centres unmarked) [YJZ1105, 3-benzyl-1-(4-(4-(1-(2-(2,6-dioxopiperidin-3-yl)-1,3-dioxoisoindol-5-yl)piperidin-4-yl)-piperazin-1-yl)phenyl)-1-((1r,4r)-4-(quinazolin-2-ylamino)cyclohexyl)urea]	effectively degrade	0.0151	26.64	excellent	1390	0.08	4.8	7.05	625	6	7.2	–	–	–	–	–	–	–	–	–
O=C1CCC(N2C(=O)c3cc(F)c(N4CCC(N5CCN(c6ccc(N(C(=O)NCc7ccccc7)[C@H]7CC[C@H](Nc8ncc9ccccc9n8)CC7)cc6)CC5)CC4)cc3C2=O)C(=O)N1 (some centres unmarked) [YJZ1201]	effectively degrade	0.0644	39.60	excellent	2510	0.08	3.27	10.8	1040	6.67	12.4	almost completely degrade	dose-dependent manner	–	–	–	–	–	–	–
O=C1CCC(N2C(=O)c3ccc(N4CCN(C5CCN(c6ccc(N(C(=O)NCc7ccccc7)[C@H]7CC[C@H](Nc8ncc9ccccc9n8)CC7)cc6)CC5)CC4)cc3C2=O)C(=O)N1 (some centres unmarked) [YJZ1202, 3-benzyl-1-(4-(4-(2-(2,6-dioxopiperidin-3-yl)-1,3-dioxoisoindole-5-yl)piperazin-1-yl)piperidin-1-ylphenyl)-1-((1r,4r)-4-(quinazolin-2-ylamino)cyclohexyl)urea]	effectively degrade	0.0175	13.51	excellent	–	–	–	–	–	–	–	almost completely degrade	dose-dependent manner	2310	0.08	6.7	4.13	291	5.33	3.76
O=C1CCC(N2C(=O)c3ccc(N4CCC(N5CCN(c6ccc(N(C(=O)NCc7ccccc7F)[C@H]7CC[C@H](Nc8ncc9ccccc9n8)CC7)cc6)CC5)CC4)cc3C2=O)C(=O)N1 (some centres unmarked) [YJZ1203]	effectively degrade	0.0188	16.95	excellent	3060	0.08	5.22	6.19	382	6.7	6.4	almost completely degrade	dose-dependent manner	–	–	–	–	–	–	–
